Source: ChEMBL document CHEMBL1201862, “PubChem BioAssay data set” (2004)
The source made the active and inactive calls.

Tests used:
Beta-lactamase [1] = target: Beta-lactamase (Pseudomonas aeruginosa, UniProt Q79MP6);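 also: biochemical dose-response test of metallo-beta-lactamase enzyme inhibition, read out by epi-absorbance; purified recombinant IMP-1 metallo-beta-lactamase with nitrocefin as substrate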
Beta-lactamase [2] = target: Beta-lactamase (Salmonella choleraesuis (strain SC-B67), UniProt Q5J463)
[3] = Luminescence Cell-Based Dose Retest to Confirm Inhibitors of Cancer Stem Cells. [Related pubchem assays (depositor defined):AID2717, AID2721]; assay type: functional; details: Homo sapiens
Melanocortin receptor 4 [4] = target: T1, Melanocortin receptor 4 (Homo sapiens, UniProt P32245); assay: inhibitors of MC4R cAMP signaling – cell-based, TR-FRET, biased antagonists, dose response (AID 602298); assay type: functional;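 also: antagonist potency against agonist-stimulated cAMP production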
Melanocortin receptor 4 [5] = target: T1, Melanocortin receptor 4; assay type: functional, cell-based
[6] = cAMP pathway inhibition in counterscreen cell line – TR-FRET cAMP detection, counter-screen for MC4R biased antagonist project, dose response (AID 602305); assay type: functional, cell-based;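 also: U2OS cells stimulated with forskolin near its EC80 as the cAMP inducer; potency is for inhibition of forskolin-stimulated cAMP signaling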
[7] = A549 cell cytotoxicity, dose response, cytotoxicity control, plate reader, cherry-pick, antagonist series (AID 743412); assay type: functional, cell-based
[8] = blockers of bursicon-stimulated LGR2 cAMP reporter – cell-based, HEK293, CRE-luciferase reporter, cherry pick, set 2, dose response (AID 743343); assay type: functional;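 also: transfected cells were stimulated with diluted bursicon conditioned medium after compound addition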
[9] = blockade of melanocortin 4 receptor signaling – cell-based, plate reader, cherry pick, counter-screen for LGR2 antagonist project, dose response (AID 743444); assay type: functional;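 also: transfected HEK 293 cells stimulated with alpha-MSH peptide; potency of inhibitors of the alpha-MSH evoked signal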
[10] = viability loss in HEK293 cells – cell-based, plate reader, cherry-picked samples, cytotoxicity control, dose response (AID 743446); assay type: functional
Beta-galactosidase = Beta-galactosidase (Escherichia coli, UniProt Q8VNN2); assay: Dose response counterscreen for EBI2 assay utilizing the enzyme, b-galactosidase.; assay type: functional
[11] = target: T2, Methionyl-tRNA synthetase, putative (Trypanosoma brucei brucei, UniProt Q38C91); assay type: functional, Trypanosoma brucei brucei strain 927/4 GUTat10.1
T2 sequence (Q38C91 whole entry): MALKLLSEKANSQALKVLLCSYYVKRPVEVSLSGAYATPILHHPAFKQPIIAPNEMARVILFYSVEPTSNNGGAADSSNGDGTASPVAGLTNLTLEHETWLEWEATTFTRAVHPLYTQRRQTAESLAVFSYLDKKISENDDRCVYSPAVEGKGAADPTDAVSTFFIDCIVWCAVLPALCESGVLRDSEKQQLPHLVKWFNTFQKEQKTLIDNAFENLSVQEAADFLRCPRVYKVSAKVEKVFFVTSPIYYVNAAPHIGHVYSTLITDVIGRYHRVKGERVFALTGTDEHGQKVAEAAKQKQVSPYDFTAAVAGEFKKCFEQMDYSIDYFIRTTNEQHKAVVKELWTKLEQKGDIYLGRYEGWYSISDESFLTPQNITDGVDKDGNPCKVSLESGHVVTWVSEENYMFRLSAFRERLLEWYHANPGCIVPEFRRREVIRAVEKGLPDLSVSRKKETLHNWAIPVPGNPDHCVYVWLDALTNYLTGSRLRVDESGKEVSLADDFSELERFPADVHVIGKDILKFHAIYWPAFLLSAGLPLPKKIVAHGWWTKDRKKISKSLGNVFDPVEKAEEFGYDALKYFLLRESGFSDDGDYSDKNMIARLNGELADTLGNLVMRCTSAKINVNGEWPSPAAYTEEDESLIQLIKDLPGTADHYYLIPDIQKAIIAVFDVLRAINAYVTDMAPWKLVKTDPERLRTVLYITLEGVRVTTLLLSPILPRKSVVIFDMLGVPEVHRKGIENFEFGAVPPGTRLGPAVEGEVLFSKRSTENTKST

[12] = Counterscreen for inhibitors of Trypanosoma brucei methionyl tRNA synthetase (MetRS): Luminescence-based cell-based high throughput dose response assay to identify compounds that are cytotoxic to Jurkat human T lymphocyte cells.; assay type: functional
[13] = target: T2, Methionyl-tRNA synthetase, putative; assay type: functional, Trypanosoma brucei brucei strain 927/4 GUTat10.1; remark: listed apart in the source
CAAX prenyl protease 2 = target: T3, CAAX prenyl protease 2 (Homo sapiens, UniProt Q9Y256); assay: inhibition of Ras-converting CAAX protease Rce1 – biochemical, yeast membranes, quenched-peptide fluorescence, cherry-pick, dose response (AID 588849)
T3 sequence (Q9Y256 whole entry): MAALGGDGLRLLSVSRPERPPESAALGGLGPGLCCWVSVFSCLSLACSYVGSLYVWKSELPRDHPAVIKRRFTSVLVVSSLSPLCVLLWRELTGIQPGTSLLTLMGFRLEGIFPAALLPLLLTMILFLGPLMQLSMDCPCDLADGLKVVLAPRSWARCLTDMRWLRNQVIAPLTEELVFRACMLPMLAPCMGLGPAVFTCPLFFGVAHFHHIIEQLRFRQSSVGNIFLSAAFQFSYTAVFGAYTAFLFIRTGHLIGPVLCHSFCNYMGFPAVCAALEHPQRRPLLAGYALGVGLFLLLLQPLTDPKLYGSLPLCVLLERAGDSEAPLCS

[14] = target: T4, Corticotropin-releasing factor receptor 2/Corticotropin-releasing factor-binding protein (Homo sapiens, UniProt P24387+Q13324); assay: Dose Response confirmation of uHTS hits for small molecule antagonists of the CRF-binding protein and CRF-R2 receptor complex.; assay type: functional; details: read-out: IC50_Mean
T4 sequence (Q13324 whole entry): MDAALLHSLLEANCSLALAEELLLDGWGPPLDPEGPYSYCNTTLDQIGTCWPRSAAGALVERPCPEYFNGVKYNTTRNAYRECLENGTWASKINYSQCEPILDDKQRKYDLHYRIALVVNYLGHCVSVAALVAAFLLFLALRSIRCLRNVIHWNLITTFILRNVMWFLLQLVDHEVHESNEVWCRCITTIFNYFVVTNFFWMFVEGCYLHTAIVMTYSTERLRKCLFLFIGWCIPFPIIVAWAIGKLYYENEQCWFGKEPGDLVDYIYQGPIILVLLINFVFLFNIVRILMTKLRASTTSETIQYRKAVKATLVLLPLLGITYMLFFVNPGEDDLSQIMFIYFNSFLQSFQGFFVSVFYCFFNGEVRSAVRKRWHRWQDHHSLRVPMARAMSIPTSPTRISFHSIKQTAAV
T4 sequence (P24387 whole entry): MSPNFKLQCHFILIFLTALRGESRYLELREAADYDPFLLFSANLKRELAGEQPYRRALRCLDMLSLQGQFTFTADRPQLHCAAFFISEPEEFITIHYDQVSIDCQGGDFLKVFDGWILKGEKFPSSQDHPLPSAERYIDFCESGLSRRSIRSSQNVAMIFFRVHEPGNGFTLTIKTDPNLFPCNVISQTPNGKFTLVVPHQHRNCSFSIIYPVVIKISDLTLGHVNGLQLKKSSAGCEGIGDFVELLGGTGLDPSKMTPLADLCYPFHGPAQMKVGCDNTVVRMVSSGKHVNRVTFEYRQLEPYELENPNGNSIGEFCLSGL

[15] = target: T4, Corticotropin-releasing factor receptor 2/Corticotropin-releasing factor-binding protein; assay: activators of CRF receptor 2 with binding protein – uHTS hits, confirmation (AID 602473); assay type: functional; details: read-out: EC50_Mean
[16] = blockers of CRF-binding protein–CRF-R2 complex – cell-based, uHTS hits, 384-well, dose response (AID 651639); assay type: functional, Homo sapiens; details: read-out: IC50_Mean
Cytochrome P450 2C9 = Cytochrome P450 2C9 (Homo sapiens, UniProt P11712)
Bcl-2-related protein A1 = target: T5, Bcl-2-related protein A1 (Mus musculus, UniProt Q07440); assay type: functional;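 also: confirmatory dose–response counterscreen on Bfl-1, used to check hits from a UBC13 polyubiquitin inhibitor campaign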
T5 sequence (Q07440 whole entry): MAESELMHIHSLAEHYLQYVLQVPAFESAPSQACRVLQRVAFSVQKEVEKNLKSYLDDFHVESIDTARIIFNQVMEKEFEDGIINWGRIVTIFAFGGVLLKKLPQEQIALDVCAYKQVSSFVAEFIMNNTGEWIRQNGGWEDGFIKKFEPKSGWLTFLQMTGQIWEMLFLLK

[17] = target: T6, Ubiquitin-conjugating enzyme E2 N (Homo sapiens, UniProt P61088); assay type: functional
T6 sequence (P61088 whole entry): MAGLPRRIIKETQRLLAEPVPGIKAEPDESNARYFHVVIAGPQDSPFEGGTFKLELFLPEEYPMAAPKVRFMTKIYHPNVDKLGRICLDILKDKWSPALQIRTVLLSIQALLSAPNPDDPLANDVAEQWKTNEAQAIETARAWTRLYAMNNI

[18] = target: T6, Ubiquitin-conjugating enzyme E2 N; assay type: functional; remark: listed apart in the source
[19] = target: DNA repair protein RAD52 homolog (Homo sapiens, UniProt P43351); assay type: functional, biochemical
[20] = blockers of HIV-1 envelope-mediated cell-cell fusion – cherry-pick, dose response (AID 652057); assay type: functional, cell-based
[21] = viability loss in CEM21 cells – cell-based, CellTiter-Glo luminescence, cherry-picked, cytotoxicity control for viral fusion inhibitor project, dose response (AID 652042); assay type: functional;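 also: potency for signal decrease meaning cytotoxicity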
[22] = blockers of HIV-1 ZM109 envelope-driven cell-cell fusion – HeLa effector, CEM target cells, luciferase, cherry-pick, dose response (AID 652058); assay type: functional, cell-based;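 also: luciferase signal from HIV-1 Env mediated cell-cell fusion of effector and target cells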
[23] = HIV-1 AD8 envelope cell-cell fusion blockers – cherry-pick, dose response (AID 652062); assay type: functional, cell-based;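 also: luciferase signal from cell-cell fusion driven by HIV-1 clade B AD8 Env; potency is for inhibitors of fusion seen as a drop in luminescence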
[24] = target: Low molecular weight phosphotyrosine protein phosphatase (Homo sapiens, UniProt P24666); assay type: functional; details: read-out: IC50_Mean;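 also: Dose-response confirmation assay measuring inhibition of LMPTP enzyme activity by fluorescence intensity read-out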
[25] = target: T7, Probable nicotinate-nucleotide adenylyltransferase (Staphylococcus aureus (strain N315), UniProt P65502); assay type: functional, Staphylococcus aureus subsp. aureus N315;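 as to IC50 Mean: confirmatory dose-response retesting of NadD inhibitor hits first found in an ultra-high-throughput screen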
[26] = target: T7, Probable nicotinate-nucleotide adenylyltransferase; assay type: functional, Staphylococcus aureus subsp. aureus N315; details: read-out: IC50_Mean
[27] = Trypanosoma cruzi growth suppression in host cells – NIH3T3 host cells, beta-gal luminescence, confirmation (AID 2044); assay type: functional, cell-based;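 also: intracellular parasites grown in NIH/3T3 mouse fibroblasts as host cells; luminescent beta-galactosidase reporter signal from transgenic T. cruzi replicating inside host cells; inhibitors lower the luminescence signal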
[28] = viability of PTEN-deleted HCT116 cells – cell-based, HCT116 PTEN knockout, dose response (AID 1047); assay type: functional;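 also: HCT116 colon tumor cells with PTEN knocked out; cells exposed to compound for 60 hours before readout; potency for loss of cell viability measured by luminescence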
[29] = NIH3T3 cell viability loss – ATP luminescence, mouse fibroblasts, counter-screen, dose response (AID 2010); assay type: functional, cell-based;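 also: cells exposed to compound for about 90 hours before reading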
[30] = viability of HCT116 lacking mutant beta-catenin – cell-based, human colon tumor, dose response (AID 1045); assay type: functional;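 also: HCT116 colon tumor cells with beta catenin knocked out; cells exposed to compound for 60 hours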
[31] = target: Glucose-6-phosphate 1-dehydrogenase (Homo sapiens, UniProt P11413); assay: inhibition of Homo sapiens G6PD, dose series – biochemical, fluorescence, selectivity assay for P. falciparum G6PD inhibitor project, dose response (AID 504792); assay type: functional
[32] = target: FAD-linked sulfhydryl oxidase ALR (Homo sapiens, UniProt P55789); assay: ALR-catalysed DTT oxidation blockers – biochemical, H2O2 detection, luminescence, cherry-pick, dose response (AID 493248)
Vero = assay: cells; assay type: functional; details: Chlorocebus sabaeus
[33] = target: T8, Mitochondrial peptide methionine sulfoxide reductase (Bos taurus, UniProt P54149); assay: Absorbance-based biochemical high throughput dose response assay for activators of Methionine sulfoxide reductase A (MsrA).; assay type: functional
T8 sequence (P54149 whole entry): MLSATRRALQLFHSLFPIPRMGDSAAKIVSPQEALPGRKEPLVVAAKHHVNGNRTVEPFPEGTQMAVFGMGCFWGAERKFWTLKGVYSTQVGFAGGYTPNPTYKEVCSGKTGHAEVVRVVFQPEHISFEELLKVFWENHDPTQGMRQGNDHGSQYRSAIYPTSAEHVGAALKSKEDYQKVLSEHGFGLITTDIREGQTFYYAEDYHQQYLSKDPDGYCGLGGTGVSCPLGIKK

Beta-galactosidase, sequence (Q8VNN2 whole entry): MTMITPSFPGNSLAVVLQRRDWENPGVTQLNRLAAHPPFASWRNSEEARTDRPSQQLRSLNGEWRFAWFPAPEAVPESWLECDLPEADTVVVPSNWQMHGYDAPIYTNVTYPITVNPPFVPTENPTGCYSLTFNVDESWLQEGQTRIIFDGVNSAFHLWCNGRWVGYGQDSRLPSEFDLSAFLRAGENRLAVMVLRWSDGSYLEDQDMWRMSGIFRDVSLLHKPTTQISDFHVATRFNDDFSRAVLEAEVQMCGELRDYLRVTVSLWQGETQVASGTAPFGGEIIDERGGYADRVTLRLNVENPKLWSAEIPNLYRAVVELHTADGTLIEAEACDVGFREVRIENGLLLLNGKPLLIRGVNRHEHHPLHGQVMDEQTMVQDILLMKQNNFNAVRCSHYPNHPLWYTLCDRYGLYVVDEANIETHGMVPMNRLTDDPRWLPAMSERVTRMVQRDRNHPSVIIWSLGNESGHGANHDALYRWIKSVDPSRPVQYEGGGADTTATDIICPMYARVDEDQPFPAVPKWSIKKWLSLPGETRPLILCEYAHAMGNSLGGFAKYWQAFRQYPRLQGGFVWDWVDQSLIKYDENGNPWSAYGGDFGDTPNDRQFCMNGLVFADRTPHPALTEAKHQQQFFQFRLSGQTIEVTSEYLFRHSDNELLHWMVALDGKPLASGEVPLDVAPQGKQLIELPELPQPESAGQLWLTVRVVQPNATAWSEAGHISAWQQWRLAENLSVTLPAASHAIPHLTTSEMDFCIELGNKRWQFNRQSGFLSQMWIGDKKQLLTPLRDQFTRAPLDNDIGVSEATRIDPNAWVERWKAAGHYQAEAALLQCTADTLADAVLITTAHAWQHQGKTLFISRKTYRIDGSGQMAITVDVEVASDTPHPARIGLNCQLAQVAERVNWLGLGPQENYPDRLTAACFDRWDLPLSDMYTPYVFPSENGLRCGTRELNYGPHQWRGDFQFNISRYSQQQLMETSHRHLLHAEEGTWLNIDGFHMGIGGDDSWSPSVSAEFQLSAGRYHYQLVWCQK
T1 sequence (P32245 whole entry): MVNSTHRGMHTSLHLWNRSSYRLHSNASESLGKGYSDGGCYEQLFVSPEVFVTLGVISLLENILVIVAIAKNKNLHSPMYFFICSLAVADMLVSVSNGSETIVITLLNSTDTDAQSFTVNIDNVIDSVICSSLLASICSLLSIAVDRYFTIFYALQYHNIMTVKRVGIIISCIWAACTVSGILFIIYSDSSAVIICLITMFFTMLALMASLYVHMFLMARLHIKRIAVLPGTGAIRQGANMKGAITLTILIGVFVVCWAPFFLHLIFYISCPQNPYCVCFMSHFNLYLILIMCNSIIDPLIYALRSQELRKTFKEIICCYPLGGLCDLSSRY
T7 sequence (P65502 whole entry): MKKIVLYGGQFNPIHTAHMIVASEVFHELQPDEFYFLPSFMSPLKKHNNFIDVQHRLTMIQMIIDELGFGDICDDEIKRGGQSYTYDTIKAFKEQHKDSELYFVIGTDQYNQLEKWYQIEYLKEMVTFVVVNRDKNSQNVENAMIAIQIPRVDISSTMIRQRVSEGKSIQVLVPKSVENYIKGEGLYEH
Low molecular weight phosphotyrosine protein phosphatase, sequence (P24666 whole entry): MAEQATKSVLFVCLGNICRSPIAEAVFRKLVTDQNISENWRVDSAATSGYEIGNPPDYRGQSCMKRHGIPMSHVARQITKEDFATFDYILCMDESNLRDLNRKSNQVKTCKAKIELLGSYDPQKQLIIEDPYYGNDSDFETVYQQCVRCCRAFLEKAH
Beta-lactamase (Salmonella choleraesuis (strain SC-B67), UniProt Q5J463), sequence (Q5J463 whole entry): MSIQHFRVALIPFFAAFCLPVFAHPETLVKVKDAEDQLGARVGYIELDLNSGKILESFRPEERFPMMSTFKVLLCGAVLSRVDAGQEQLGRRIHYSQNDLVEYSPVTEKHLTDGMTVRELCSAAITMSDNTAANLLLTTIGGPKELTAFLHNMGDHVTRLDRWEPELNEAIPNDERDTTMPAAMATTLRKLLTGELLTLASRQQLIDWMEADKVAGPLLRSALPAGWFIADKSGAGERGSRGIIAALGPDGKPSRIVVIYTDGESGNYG
DNA repair protein RAD52 homolog, sequence (P43351 whole entry, the tested form may be a part): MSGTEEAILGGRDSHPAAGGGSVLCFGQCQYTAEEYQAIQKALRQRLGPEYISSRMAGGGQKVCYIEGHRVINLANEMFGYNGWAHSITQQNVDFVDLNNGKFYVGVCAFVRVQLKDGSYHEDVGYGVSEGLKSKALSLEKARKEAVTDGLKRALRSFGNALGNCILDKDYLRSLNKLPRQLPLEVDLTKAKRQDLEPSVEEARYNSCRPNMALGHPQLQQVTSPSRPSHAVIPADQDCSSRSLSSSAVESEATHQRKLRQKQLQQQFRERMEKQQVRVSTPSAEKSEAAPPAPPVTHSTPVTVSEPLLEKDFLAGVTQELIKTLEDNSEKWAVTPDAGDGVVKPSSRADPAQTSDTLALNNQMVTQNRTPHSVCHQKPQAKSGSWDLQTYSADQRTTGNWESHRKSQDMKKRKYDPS
FAD-linked sulfhydryl oxidase ALR, sequence (P55789 whole entry): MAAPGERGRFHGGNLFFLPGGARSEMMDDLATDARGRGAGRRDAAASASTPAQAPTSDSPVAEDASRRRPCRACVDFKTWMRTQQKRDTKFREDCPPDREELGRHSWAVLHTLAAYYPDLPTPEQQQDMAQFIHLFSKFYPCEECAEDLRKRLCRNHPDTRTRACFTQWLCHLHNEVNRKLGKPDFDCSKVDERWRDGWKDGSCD
Cytochrome P450 2C9, sequence (P11712 whole entry): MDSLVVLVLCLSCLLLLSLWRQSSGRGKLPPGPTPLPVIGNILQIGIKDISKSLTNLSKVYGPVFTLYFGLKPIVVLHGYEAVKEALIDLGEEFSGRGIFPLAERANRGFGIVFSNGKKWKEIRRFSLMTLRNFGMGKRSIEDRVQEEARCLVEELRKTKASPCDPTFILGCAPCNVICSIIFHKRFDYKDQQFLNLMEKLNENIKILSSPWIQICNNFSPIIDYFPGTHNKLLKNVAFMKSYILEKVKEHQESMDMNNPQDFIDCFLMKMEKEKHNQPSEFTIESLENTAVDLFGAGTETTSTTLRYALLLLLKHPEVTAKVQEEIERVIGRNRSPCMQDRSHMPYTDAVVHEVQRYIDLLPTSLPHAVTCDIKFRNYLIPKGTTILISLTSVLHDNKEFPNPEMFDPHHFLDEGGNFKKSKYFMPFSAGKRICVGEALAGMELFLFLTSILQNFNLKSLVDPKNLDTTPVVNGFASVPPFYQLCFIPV
Beta-lactamase (Pseudomonas aeruginosa, UniProt Q79MP6), sequence (Q79MP6 whole entry): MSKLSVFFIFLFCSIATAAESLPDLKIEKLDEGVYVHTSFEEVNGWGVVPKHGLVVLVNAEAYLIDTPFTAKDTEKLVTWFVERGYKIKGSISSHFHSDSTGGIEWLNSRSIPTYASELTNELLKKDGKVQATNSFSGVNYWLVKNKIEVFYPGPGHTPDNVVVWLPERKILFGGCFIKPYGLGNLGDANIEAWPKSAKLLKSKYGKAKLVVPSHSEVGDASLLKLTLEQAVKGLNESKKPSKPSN
Glucose-6-phosphate 1-dehydrogenase, sequence (P11413 whole entry): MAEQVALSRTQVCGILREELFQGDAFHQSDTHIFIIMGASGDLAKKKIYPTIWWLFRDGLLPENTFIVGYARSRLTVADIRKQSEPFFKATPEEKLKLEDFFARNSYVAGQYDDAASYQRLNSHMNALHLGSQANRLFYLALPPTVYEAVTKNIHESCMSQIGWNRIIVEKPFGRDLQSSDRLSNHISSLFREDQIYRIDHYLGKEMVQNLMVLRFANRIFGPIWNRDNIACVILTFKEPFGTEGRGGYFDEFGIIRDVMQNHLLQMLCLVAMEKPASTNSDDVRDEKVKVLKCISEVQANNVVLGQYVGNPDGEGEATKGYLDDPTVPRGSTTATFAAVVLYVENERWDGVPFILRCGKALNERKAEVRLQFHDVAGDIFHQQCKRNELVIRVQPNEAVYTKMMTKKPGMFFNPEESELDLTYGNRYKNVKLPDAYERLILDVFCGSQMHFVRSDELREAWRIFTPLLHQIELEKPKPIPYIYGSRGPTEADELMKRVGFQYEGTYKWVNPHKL

SMILES: COCCCn1/c(=N/C(=O)c2ccccc2)c(C#N)cc2c(=O)n3cccc(C)c3nc21
- IC50 (Beta-lactamase [1]): > 59.6 µM (inactive)
- IC50 (Beta-lactamase [2]): > 59.6 µM (inactive)

SMILES: CCCCNc1c(-c2cccc(-c3cc(C(C)=O)cs3)c2)nc2ccc(C)cn12
- AC50 [3]: 4.47 µM (active)
- IC50 (Melanocortin receptor 4 [4]): > 64.6 µM (inactive)
- EC50 (Melanocortin receptor 4 [5]): > 89.2 µM (inactive)
- IC50 [6]: > 64.6 µM (inactive)
- AC50 [7]: > 52 µM (inactive)
- AC50 [8]: 11.4 µM (active)
- AC50 [9]: 14.5 µM (active)
- AC50 [10]: > 52 µM (inactive)

SMILES: O=C(/C=C/c1ccccc1)N1CCN(c2ccccn2)CC1
- IC50 (Beta-galactosidase): > 80 µM (inactive)

SMILES: C#Cc1ccc([C@@H]2C=C(C(=O)NCc3nc4ccccc4[nH]3)O[C@H](OCC)[C@H]2CCCO)cc1
- IC50 [11]: 22.3 µM (inactive)
- IC50 [12]: 35.8 µM (inactive)
- IC50 [13]: 8.94 µM (active)

SMILES: CSc1nnc(-c2sc(-c3ccccc3)nc2C)n1C
- AC50 (CAAX prenyl protease 2): > 100 µM (inactive)
- IC50 [14]: < 0.368 µM (active)
- EC50 [15]: > 53 µM (inactive)
- IC50 [16]: > 20 µM (inactive)
- AC50 (Cytochrome P450 2C9): 0.0708 µM (inconclusive)

SMILES: Cc1ccc(C(=O)NCCN2C3=NC[C@@H](Cc4ccccc4)N3C[C@H]2Cc2ccc(O)cc2)cc1Br
- IC50 (Bcl-2-related protein A1): > 20 µM (inactive)
- IC50 [17]: 19.4 µM (active)
- IC50 [18]: > 20 µM (inactive)
- AC50 [19]: 19.2 µM (active)

SMILES: COc1ccccc1N1CCN(C(=O)c2cc3cc(C)ccc3[nH]2)CC1
- IC50 (Beta-galactosidase): > 80 µM (inactive)

SMILES: C[C@H](CO)N1C[C@H](C)[C@H](CN(C)S(=O)(=O)c2ccccc2)Oc2ccc(NC(=O)Nc3cccc4ccccc34)cc2CC1=O
- AC50 [20]: < 0.26 µM (active)
- AC50 [21]: 31.7 µM (active)
- AC50 [22]: < 0.26 µM (active)
- AC50 [23]: 0.685 µM (active)

SMILES: O=C(COC(=O)c1ccc(Br)o1)Nc1nc2c(F)c(F)c(F)cc2s1
- IC50 [24]: 12.7 µM (active)

SMILES: CCn1cc(/C=N/NC(=O)c2cc3c(ccc4ccccc43)o2)c2ccccc21
- IC50 [25]: 40.7 µM (active)
- IC50 [26]: 80 µM (inactive)

SMILES: O=c1ccsn1Cc1ccccc1
- EC50 [27]: 1.1 µM (active)
- EC50 [28]: 13 µM (active)
- EC50 [29]: 37.5 µM (active)
- EC50 [30]: 12.5 µM (active)
- IC50 [31]: 75.6 µM (inactive)
- AC50 [32]: < 0.005 µM (active)
- CC50 (Vero): > 25 µM (active)
- EC50 [33]: > 104 µM (inactive)
